Experimental data reported in patent US20230346747A1, “DIALKYL T[…] THEIR […] USES” (CAAMTECH, INC., priority 2020, published 2023).

How the values were obtained:
Format in all cases: in vitro ADME
[1] = In vitro plasma stability, human plasma; details: 37° C.; for Percent remaining after 2 h incubation / k: 1.0 µM; for k: pH 7.4, slope of log % remaining versus incubation time; for half-life at 1 µM: both sexes, pH 7.4, read-out: T½ (converted)
From the text: (§1) Human plasma (Bioreclamation, Cat#: BRH470404, male:female=1:1,v:v); Rat plasma (HDB, Cat#: HDB_RsP_20221120, male:female=1:1,v:v); C57 Mouse plasma (HDB, Cat#: HDB_MsP_202201120, male:female=1:1,v:v); Male cynomolgus monkey plasma (RILD, Cat#: MP210107-P). Analytical grade inorganic salts were purchased from Sinopharm Chemical Reagent Co. (Shanghai, China). HPLC grade organic solvents were purchased from Sigma-Aldrich, USA. Distilled water, prepared from demineralized water, was used throughout the study.
(§2) Stock solution of test compound was provided in 100% DMSO. The stock solution for each compound was diluted into 100 µM with ACN(50%) and then diluted into plasma of different species (pH 7.4) to achieve a final concentration of 1.0 µM.
(§3) 1.0 µM of test compound in duplicate was incubated in plasma at 37° C. Aliquots of 50 µL or 80 µL sample were collected at 0, 0.25, 0.5, 1 and 2 h.
(§4) An aliquot of 50 µL samples were collected at various time points, and mixed with 300 µL of ice-cold 100% acetonitrile containing internal standard. After centrifuging the plate at 4000 rpm for 20 min, 50 µL of supernatants were added with 100 µL H2O, mix well and analyzed with UPLC-MS/MS.
(§5) A Waters liquid chromatographic system was used. Detection was performed on an API4000 Q-Trap and API5500 mass spectrometer equipped with TurbolonSpray (ESI) Interface (Applied Biosystems, Concord, Ontario, Canada). Analyst 1.5 and 1.6.2 software packages (Applied Biosystems) were used to control the LC-MS/MS system, as well as for data acquisition and processing.
(§6) Chromatographic separation was achieved on the Waters ACQUITY UPLC BEH C18 column (50*2.1 mm ID, 1.7 µm) and Thermo Scientific AccucoreTM PFP column(100*2.1 ID mm, 2.6 µm). The column temperature was maintained at ambient temperature (25° C.). The flow rate was maintained at 0.6 mL/min and the mobile phases used were according to Tables 5-7.
(§7) The peak area ratio of test compound to internal standard is plotted as a percentage of the relevant zero time point control (% Remained) for each reaction. The rate of metabolism (k) is the slope of the linear regression from log percentage remaining versus incubation time.

[2] = In vitro plasma stability, rat plasma; details: SD rat plasma, 37° C.; for half-life at 1 µM: both sexes, pH 7.4, read-out: T½ (converted)
From the text: as §1, §2, §3, §4, §5, §6, §7

[3] = In vitro plasma stability, mouse plasma; details: C57 mouse plasma, 37° C.; for Percent remaining after 2 h incubation / k: 1.0 µM; for k: pH 7.4; for half-life at 1 µM: both sexes, pH 7.4, read-out: T½ (converted)
From the text: as §1, §2, §3, §4, §5, §6, §7

[4] = In vitro plasma stability, monkey plasma; details: cynomolgus monkey plasma, 37° C.; for half-life at 1 µM: male, pH 7.4, read-out: T½ (converted)
From the text: as §1, §2, §3, §4, §5, §6, §7

Row | Compound | Percent remaining after 2 h incubation [1] [%] | k [1] | half-life at 1 µM [1] [h] | Percent remaining after 2 h incubation ([2]; 1.0 µM) [%] | k ([2]; 1.0 µM, pH 7.4) | half-life at 1 µM [2] [h] | Percent remaining after 2 h incubation [3] [%] | k [3] | half-life at 1 µM [3] [h] | Percent remaining after 2 h incubation ([4]; 1.0 µM) [%] | k ([4]; 1.0 µM, pH 7.4) | half-life at 1 µM [4] [h] | T½ ([2]; 1.0 µM, pH 7.4) | T½ ([4]; 1.0 µM, pH 7.4)
1 | CN(C)CCc1c[nH]c2cccc(O)c12 [Psilocin] | 97.9 | 0.034 | 20.5 | 86.2 | 0.092 | 7.54 | 89.2 | 0.048 | 14.5 | 92.8 | 0.039 | 17.9 | – | –
2 | COc1ccc([C@@H]2Sc3ccccc3N(CCN(C)C)C(=O)[C@@H]2OC(C)=O)cc1 [Diltiazem] | 80.5 | – | 6.4 | 78.8 | – | 6.75 | 87.9 | – | 10.6 | 90.5 | – | 12.8 | – | –
3 | CN(C)CCc1c[nH]c2cccc(OP(=O)(O)O)c12 [Psilocybin] | 19.4 | 0.849 | 0.82 | 113 | -0.066 | – | 93.2 | 0.008 | 91.5 | 113 | -0.046 | – | stable | stable
4 | CCN(CC)CCOC(=O)c1ccc(N)cc1 [Procaine] | 0.00 | – | < 0.125 | 52.0 | 0.347 | 2 | 0.00 | 11.212 | < 0.125 | 0.00 | 26.073 | – | – | –
5 | CC(=O)Oc1cccc2[nH]cc(CCN(C)C)c12 [Compound 4-AcO-DMT, 4-acetoxy-N,N-dimethyltryptamine] | 0.00 | – | < 0.125 | 0.00 | – | < 0.125 | 0.00 | – | < 0.125 | 0.00 | – | < 0.125 | – | –
